Measured values as given in US20060112446A1, “Transposon genes of rice, transformed plant and method of use” (priority 2001, published 2006).

Experiments:
[1] = tested on: transposon gene with the nucleotide sequence of Sequence Number 3 in scutellum-derived calli; experiment: PCR detection of deletion (transposition) of the autonomous transposon gene in scutellum-derived calli treated with 5-azacytidine (Example 9); format: cell-based, rice (Oryza sativa), cultivar Nihonbare; details: for The frequency of deletion (calli with deletion/calli examined) / The frequency of deletion (percent): scutellum-derived Nihonbare calli, 2 weeks growth culture
Experimental: In this example, we examined the transposition activity of the nucleotide sequence of Sequence Number 3 in anther-derived calli and in scutellum-derived calli treated with 5-azacytidine.
Seeds of Nihonbare, a rice cultivar, were sterilized in3% sodium hypochlorite solution for 15˜30 min, washed with sterilized water, inoculated on a 90×20 mm of Petri dish (Iwaki Co.) with 20˜30 ml of media at the rate of 9 seeds per dish and subjected to induction culture under light for 24 h at 30° C. Used was a solid medium consisting of 4 g of CHU (N6) BASAL SALT MIXTURE® (Sigma Co.), 1 ml of MS VITAMIN SOLUTION® (Sigma Co.), 2 mg of 2,4-dichloro-phenoxyacetic acid (Sigma Co.), 0.3 g of casamino acids (DIFCO), 0.1 g of myo-inositol (Sigma Co.), 2.878 g proline (Wako), 30 g of sucrose (Wako), 2 g of GELRITE® (Wako) in 1 L of medium. On the 10th day of inductive culture, the calli derived from induced seeds were transferred to a growth medium supplemented with 5-azacytidine (Sigma) at 0 mM, 0.1 mM or 0.5 mM and were subjected to growth culture underlight for 24 h at 33° C. Used was a solid medium consisting of 4 g of CHU (N6) BASAL SALT MIXTURE® (Sigma Co.), 1 ml of MS VITAMIN SOLUTION® (Sigma Co.), 2 mg of 2,4-dichloro-phenoxyacetic acid (Sigma Co.), 0.3 g of casamino acids (DIFCO), 0.1 g of myo-inositol (Sigma Co.), 2.878 g proline (Wako), 30 g of sucrose (Wako), 2 g of GELRITE® (Wako) in 1 L of medium. DNA was extracted from calli derived from seeds in growth culture for two weeks by DNEASY PLANT MINI KIT® (Qiagen).
To amplify the DNA region containing the transposon DNA by PCR, we used the oligonucleotides comprising the sequences of Sequence Numbers 26 and 27 as PCR primers. Each reaction mixture (100 μl) contained 200 ng of DNA, 2.5 units of TAKARA LA TAQ® (Takara Co.), 10 μl of 10× LA PCR bufferII, 6 µl of 25 mM MgCl2, 8 μl of dNTP Mixture (2.5mM each dNTP) and 100 pmol of primers. Each cycle of the polymerase reaction consisted of a denaturation step at 94° C. for 30 sec and an extension step at 68° C. for 12 min. This cycle was repeated 35 times. After the reaction, PCR products were separated on 0.8% LO3 AGAROSE® (Takara Co.) gel electrophoresis.

[2] = tested on: transposon gene (430 bp, Sequence Number 1) in calli derived from Nihonbare seeds; experiment: PCR detection of deletion (transposition) of the nonautonomous transposon gene in seed-derived calli grown on 5-azacytidine medium (Example 5); format: cell-based, rice (Oryza sativa), cultivar Nihonbare
Experimental: Seeds of Nihonbare were sterilized in 3% sodium hypochlorite solution for 15˜30 min, washed with sterilized water, inoculated on a 90×20 mm of Petri dish (Iwaki Co.) containing 20˜30 ml of media at the rate of 9 seeds per dish and subjected to induction culture under light for 24 h at 30° C. We used a solid medium consisting of 4 g of CHU (N6) BASAL SALT MIXTURE® (Sigma Co.), 1 ml of MS VITAMIN SOLUTION® (Sigma Co.), 2 mg of 2,4-dichloro-phenoxyacetic acid (Sigma Co.), 0.3 g of casamino acids (DIFCO), 0.1 g of myo-inositol (Sigma Co.), 2.878 g proline (Wako), 30 g of sucrose (Wako), 2 g of Gelrite® (Wako) in 1 L of medium.
After several days, calli were started forming from scutellum inside rice seeds and changed to cream-colored ones with 5 mm length on the 10th day of culture. The creamy-colored calli with 5mm length were transplanted to growth media supplemented with 5-azacytidine (Sigma Co.) at either 0 mM, 0.01 mM, 0.03 mM, 0.05 mM, 0.1 mM or 0.3 mM, respectively, and subjected to growth culture under light for 24 h at 30° C. We used a solid medium consisting of 4 g of CHU (N6) BASAL SALT MIXTURE® (Sigma Co.), 1 ml of MS VITAMIN SOLUTION® (Sigma Co.), 2 mg of 2, 4-dichloro-phenoxyacetic acid (Sigma Co.), 0.3 g of casamino acids (DIFCO), 0.1 g of myo-inositol (Sigma Co.), 2.878 g proline (Wako), 30 g of sucrose (Wako), 2 g of GELRITE® (Wako) in 1 L of medium. […]

Nc1ncn([C@@H]2O[C@H](CO)[C@@H](O)[C@H]2O)c(=O)n1 [5-azacytidine]
The frequency of deletion (calli with deletion/calli examined) ([1]; 0.1 mM 5-azacytidine): 2/8 | The frequency of deletion (percent) ([1]; 0.1 mM 5-azacytidine): (25%) | The frequency of deletion (calli with deletion/calli examined) ([1]; 0.5 mM 5-azacytidine): 7/8 | The frequency of deletion (percent) ([1]; 0.5 mM 5-azacytidine): (87.5%) | Transposition of the transposon gene of Sequence Number 3 ([1]; scutellum-derived calli treated with 5-azacytidine): high frequency of transposition | DNA bands in PCR of the region containing the transposon gene (approx. 300 bp band = transposon gene deleted) ([2]; seed-derived Nihonbare calli, 0.03 mM-0.3 mM 5-azacytidine in growth medium, 2 weeks growth culture): Two DNA bands of approximately 730 bp and 300 bp were observed | Induction of transposition of the transposon gene ([2]; seed-derived calli, 5-azacytidine treatment): could be induced even for seed-derived calli
